Consider 1 compound from paper PMC10574094, “Discovery of a SHP2 Degrader with In Vivo Anti-Tumor Activity” (Molecules, 2023).

Assay [1] concerns SHP1, PTP1B, TC-PTP, LYP, PRL1, PRL2. Nature of the assay: Western blot of other PTPs in HEK293 cells (degrader selectivity). In kind it is cell-based, human. The note with it: 1 μM P9, 16 h. As for the experimental part:
(§1) HEK293, SKBR3, U2OS, MCF7 and A549 cells were grown in DMEM supplemented with 10% FBS, penicillin (50 units/mL), and streptomycin (50 μg/mL) in a 37 °C incubator containing 5% CO2. KYSE-520 and H358 cells were grown in RPMI-1640 supplemented with 10% FBS, penicillin (50 units/mL), and streptomycin (50 μg/mL) in a 37 °C incubator containing 5% CO2. For western-blot analysis, protein samples were separated by SDS-PAGE, transferred to nitrocellulose membranes, and incubated overnight at 4 °C with corresponding primary antibodies diluted in 5% BSA in phosphate-buffered saline Tween (PBST). SuperSignal™ West Pico PLUS (PI34580; Thermo Scientific) was used to visualize the antibodies in the bioanalytical imaging system (Azure Biosystems c500). Anti-p-ERK1/2 (T202/Y204) (4370), and anti-ERK1/2 (4696) were purchased from Cell Signaling Technology. Anti-GAPDH (sc-365062), anti-SHP2 (sc-7384), anti-SHP1 (sc-7289), and anti-Actin (sc-8432) antibodies were purchased from Santa Cruz. Anti-PTP1B (ab244207) antibody was purchased from Abcam. For colony formation assay, a total of approximately 200–500 cells were seeded to each well in a 12-well plate. The wells were then treated with DMSO, compound P9 and 3 at 37 °C for 3 weeks, gently washed, and stained with crystal violet.
Background: In western blotting, separated proteins are transferred to a membrane and probed.

For assay [2], the system named is other PTPs. The experiment in a line: PTP inhibition assay, panel of representative PTP family members. The assay is classed as biochemical. The conditions noted are these: up to 10 µM P9 concentration. As for the experimental part:
PTP activity was assayed using p-nitrophenyl phosphate (pNPP) as a substrate in DMG buffer (50 mM DMG, pH 7.0, 1 mM EDTA, 150 mM NaCl, 2 mM DTT, 0.1 mg/mL BSA) at 25 °C. The assays were performed in 96-well plates. To determine the IC50 values, the reaction was initiated by the addition of enzyme (final concentration = 10 nM) to a reaction mixture (0.2 mL) containing pNPP (at a final concentration close to the Kms of tested enzymes, in specific: 0.05 mM for CDC-14A; 0.5 mM for FAP-1; 2 mM for TC-PTP, PTP1B, STEP, LWM-PTP, and PTPα; 3 mM for SHP1; 4 mM for Laforin; 5 mM for LYP, CD45, and VHR; 6 mM for PTP-MEG2 and HePTP) with various concentrations of inhibitors. The reaction rate was measured using a SpectraMax Plus 384 Microplate Spectrophotometer (Molecular Devices, San Jose, CA, USA). Data were fitted using the SigmaPlot Enzyme Kinetics Module (Systat Software, Inc., San Jose, CA, USA).

For assay [3], the system named is PTP1B and SHP1. The experiment in a line: Western blot of PTP1B and SHP1 in KYSE-520 cells. The assay is classed as cell-based. The conditions noted are these: 16 h. The procedure:
as §1

The target in assay [4] is T1, SHP2 (Homo sapiens, UniProt Q06124).
T1 sequence (Q06124 1-593): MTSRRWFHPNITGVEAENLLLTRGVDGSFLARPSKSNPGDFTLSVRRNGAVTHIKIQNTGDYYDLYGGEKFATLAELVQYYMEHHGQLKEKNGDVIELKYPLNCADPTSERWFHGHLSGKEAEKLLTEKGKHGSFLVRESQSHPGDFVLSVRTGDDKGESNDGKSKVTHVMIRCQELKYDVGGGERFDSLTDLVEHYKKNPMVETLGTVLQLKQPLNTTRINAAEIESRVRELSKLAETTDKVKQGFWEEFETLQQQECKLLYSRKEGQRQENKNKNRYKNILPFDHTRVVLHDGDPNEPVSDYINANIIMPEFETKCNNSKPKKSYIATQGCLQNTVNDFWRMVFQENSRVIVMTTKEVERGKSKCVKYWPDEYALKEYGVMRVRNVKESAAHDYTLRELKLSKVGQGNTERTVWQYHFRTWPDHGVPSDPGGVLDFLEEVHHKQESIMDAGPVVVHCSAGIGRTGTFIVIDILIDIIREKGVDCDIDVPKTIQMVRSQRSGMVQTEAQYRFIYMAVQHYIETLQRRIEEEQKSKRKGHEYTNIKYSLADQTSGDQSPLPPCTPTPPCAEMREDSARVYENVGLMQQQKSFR
Nature of the assay: SHP2 level in KYSE-520 tumor homogenates (Western blot). The conditions noted are these: whole tumor homogenates, 50 mg/kg P9 IP. In kind it is in vivo, mice. Also on record: from tissue; host or cells: KYSE-520 xenograft tumour from nude mice, whole tumour homogenate. The procedure:
as §1, with “For colony formation assay, a total of approximately 200–500 cells were seeded to each well in a 12-well plate. The wells were then treated with DMSO, compound P9 and 3 at 37 °C for 3 weeks, gently washed, and stained with crystal violet.” left out
For the xenograft tumor study, KYSE-520 cells were suspended in PBS and a total of 3 × 10^6 cells (100 μL) were subcutaneously implanted into both the left and right flank using a 27-gauge needle. Tumor volume was calculated using the formula V = (W^2 × L)/2 for caliper measurements. […]

Regarding `Cc1ncsc1-c1ccc([C@H](C)NC(=O)[C@@H]2C[C@@H](O)CN2C(=O)[C@@H](NC(=O)CCCCCCCCCN2CCN(C(=O)CCCCCC3(CN)CCN(c4cnc(Sc5cccc(Cl)c5Cl)c(N)n4)CC3)CC2)C(C)(C)C)cc1` [P9, (2S,4R)-1-((S)-2-(10-(4-(6-(1-(6-amino-5-((2,3-dichlorophenyl)thio)pyrazin-2-yl)-4-(aminomethyl)piperidin-4-yl)hexanoyl)piperazin-1-yl)decanamido)-3,3-dimethylbutanoyl)-4-hydroxy-N-((S)-1-(4-(4-methylthiazol-5-yl)phenyl)ethyl)pyrrolidine-2-carboxamide], the “protein level of other PTPs” value in assay [1] was “none of the other PTPs including SHP1, PTP1B, TC-PTP, LYP, PRL1, and PRL2, were affected”. Besides, the “inhibition towards other PTPs” value in assay [2] is “no significant inhibition”. For the same compound, in assay [3], the “protein levels of PTP1B and SHP1” value is recorded as “not affected”. For the same compound, the “SHP2 level, % of the control group” value in assay [4] is on record as 34 ± 18%.
